How the values were obtained:
Assay in all cases: PathHunter β-arrestin GpcrMAX assay
Type in all cases: cell-based
[1] = target: T1, SSTR2 (Homo sapiens, UniProt P30874)
T1 construct: purchased DiscoveRx (Eurofins) gpcrMAX PathHunter β-arrestin panel
How it was run: (§1)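 Taveuniamide F was examined at 20 µM for receptor activation and for inhibition, with β-arrestin recruitment detected by PathHunter EFC.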

[2] = target: T2, GPR109B (Homo sapiens, UniProt P49019)
T2 construct: purchased DiscoveRx (Eurofins) gpcrMAX PathHunter β-arrestin panel
How it was run: as §1

[3] = target: AVPR1A (Homo sapiens, UniProt P37288)
How it was run: as §1

[4] = target: T3, PROKR2 (Homo sapiens, UniProt Q8NFJ6)
T3 construct: purchased DiscoveRx (Eurofins) gpcrMAX PathHunter β-arrestin panel
How it was run: as §1

[5] = target: T4, CRHR2 (Homo sapiens, UniProt Q13324)
T4 construct: purchased DiscoveRx (Eurofins) gpcrMAX PathHunter β-arrestin panel
How it was run: as §1

[6] = target: T5, GPR109A (Homo sapiens, UniProt Q8TDS4)
T5 construct: purchased DiscoveRx (Eurofins) gpcrMAX PathHunter β-arrestin panel
How it was run: as §1

[7] = target: T6, GPR92 (Homo sapiens, UniProt Q9H1C0)
T6 construct: purchased DiscoveRx (Eurofins) gpcrMAX PathHunter β-arrestin panel
How it was run: as §1

[8] = target: ADRB2 (Homo sapiens, UniProt P07550)
How it was run: as §1

[9] = target: T7, CCR5 (Homo sapiens, UniProt P51681)
T7 construct: purchased DiscoveRx (Eurofins) gpcrMAX PathHunter β-arrestin panel
How it was run: as §1

[10] = target: T8, CHRM3 (Homo sapiens, UniProt P20309)
T8 construct: purchased DiscoveRx (Eurofins) gpcrMAX PathHunter β-arrestin panel
How it was run: as §1

[11] = target: T9, CXCR2 (Homo sapiens, UniProt P25025)
T9 construct: purchased DiscoveRx (Eurofins) gpcrMAX PathHunter β-arrestin panel
How it was run: as §1

[12] = target: T10, ADRA1B (Homo sapiens, UniProt P35368)
T10 construct: purchased DiscoveRx (Eurofins) gpcrMAX PathHunter β-arrestin panel
How it was run: as §1

[13] = target: T11, PROKR1 (Homo sapiens, UniProt Q8TCW9)
T11 construct: purchased DiscoveRx (Eurofins) gpcrMAX PathHunter β-arrestin panel
How it was run: as §1

[14] = target: T12, P2RY2 (Homo sapiens, UniProt P41231)
T12 construct: purchased DiscoveRx (Eurofins) gpcrMAX PathHunter β-arrestin panel
How it was run: as §1

[15] = target: T13, HRH1 (Homo sapiens, UniProt P35367)
T13 construct: purchased DiscoveRx (Eurofins) gpcrMAX PathHunter β-arrestin panel
How it was run: as §1

[16] = target: T14, ADCYAP1R1 (Homo sapiens, UniProt P41586)
T14 construct: purchased DiscoveRx (Eurofins) gpcrMAX PathHunter β-arrestin panel
How it was run: as §1

[17] = target: T15, LTB4R (Homo sapiens, UniProt Q15722)
T15 construct: purchased DiscoveRx (Eurofins) gpcrMAX PathHunter β-arrestin panel
How it was run: as §1

[18] = target: T16, GALR1 (Homo sapiens, UniProt P47211)
T16 construct: purchased DiscoveRx (Eurofins) gpcrMAX PathHunter β-arrestin panel
How it was run: as §1

[19] = target: T17, KISS1R (Homo sapiens, UniProt Q969F8)
T17 construct: purchased DiscoveRx (Eurofins) gpcrMAX PathHunter β-arrestin panel
How it was run: as §1

[20] = target: T18, TACR2 (Homo sapiens, UniProt P21452)
T18 construct: purchased DiscoveRx (Eurofins) gpcrMAX PathHunter β-arrestin panel
How it was run: as §1

[21] = target: CALCR-RAMP2 (Homo sapiens, UniProt O60895+P30988)
How it was run: as §1

[22] = target: T19, HRH2 (Homo sapiens, UniProt P25021)
T19 construct: purchased DiscoveRx (Eurofins) gpcrMAX PathHunter β-arrestin panel
How it was run: as §1

[23] = target: AVPR2 (Homo sapiens, UniProt P30518)
How it was run: as §1

[24] = target: T20, MTNR1A (Homo sapiens, UniProt P48039)
T20 construct: purchased DiscoveRx (Eurofins) gpcrMAX PathHunter β-arrestin panel
How it was run: as §1

[25] = target: T21, PTHR2 (Homo sapiens, UniProt P49190)
T21 construct: purchased DiscoveRx (Eurofins) gpcrMAX PathHunter β-arrestin panel
How it was run: as §1

[26] = target: T22, DRD2S (Homo sapiens, UniProt P14416)
T22 construct: purchased DiscoveRx (Eurofins) gpcrMAX PathHunter β-arrestin panel
How it was run: as §1

[27] = target: BRS3 (Homo sapiens, UniProt P32247)
How it was run: as §1

[28] = target: T23, F2R (Homo sapiens, UniProt P25116)
T23 construct: purchased DiscoveRx (Eurofins) gpcrMAX PathHunter β-arrestin panel
How it was run: as §1

[29] = target: T24, OPRM1 (Homo sapiens, UniProt P35372)
T24 construct: purchased DiscoveRx (Eurofins) gpcrMAX PathHunter β-arrestin panel
How it was run: as §1

[30] = target: T25, GLP1R (Homo sapiens, UniProt P43220)
T25 construct: purchased DiscoveRx (Eurofins) gpcrMAX PathHunter β-arrestin panel
How it was run: as §1

[31] = target: BDKRB2 (Homo sapiens, UniProt P30411)
How it was run: as §1

[32] = target: T26, GPR1 (Homo sapiens, UniProt P46091)
T26 construct: purchased DiscoveRx (Eurofins) gpcrMAX PathHunter β-arrestin panel
How it was run: as §1

[33] = target: T27, ADRA2B (Homo sapiens, UniProt P18089)
T27 construct: purchased DiscoveRx (Eurofins) gpcrMAX PathHunter β-arrestin panel
How it was run: as §1

[34] = target: T28, MC3R (Homo sapiens, UniProt P41968)
T28 construct: purchased DiscoveRx (Eurofins) gpcrMAX PathHunter β-arrestin panel
How it was run: as §1

[35] = target: T29, CCKBR (Homo sapiens, UniProt P32239)
T29 construct: purchased DiscoveRx (Eurofins) gpcrMAX PathHunter β-arrestin panel
How it was run: as §1

[36] = target: T30, EDNRA (Homo sapiens, UniProt P25101)
T30 construct: purchased DiscoveRx (Eurofins) gpcrMAX PathHunter β-arrestin panel
How it was run: as §1

[37] = target: T31, DRD5 (Homo sapiens, UniProt P21918)
T31 construct: purchased DiscoveRx (Eurofins) gpcrMAX PathHunter β-arrestin panel
How it was run: as §1

[38] = target: T32, OPRD1 (Homo sapiens, UniProt P41143)
T32 construct: purchased DiscoveRx (Eurofins) gpcrMAX PathHunter β-arrestin panel
How it was run: as §1

[39] = target: CALCR (Homo sapiens, UniProt P30988)
How it was run: as §1

[40] = target: CALCR-RAMP3 (Homo sapiens, UniProt O60896+P30988)
How it was run: as §1

[41] = target: T33, EDG7 (Homo sapiens, UniProt Q9UBY5)
T33 construct: purchased DiscoveRx (Eurofins) gpcrMAX PathHunter β-arrestin panel
How it was run: as §1

[42] = target: T34, SSTR3 (Homo sapiens, UniProt P32745)
T34 construct: purchased DiscoveRx (Eurofins) gpcrMAX PathHunter β-arrestin panel
How it was run: as §1

T27 sequence (P18089 whole entry): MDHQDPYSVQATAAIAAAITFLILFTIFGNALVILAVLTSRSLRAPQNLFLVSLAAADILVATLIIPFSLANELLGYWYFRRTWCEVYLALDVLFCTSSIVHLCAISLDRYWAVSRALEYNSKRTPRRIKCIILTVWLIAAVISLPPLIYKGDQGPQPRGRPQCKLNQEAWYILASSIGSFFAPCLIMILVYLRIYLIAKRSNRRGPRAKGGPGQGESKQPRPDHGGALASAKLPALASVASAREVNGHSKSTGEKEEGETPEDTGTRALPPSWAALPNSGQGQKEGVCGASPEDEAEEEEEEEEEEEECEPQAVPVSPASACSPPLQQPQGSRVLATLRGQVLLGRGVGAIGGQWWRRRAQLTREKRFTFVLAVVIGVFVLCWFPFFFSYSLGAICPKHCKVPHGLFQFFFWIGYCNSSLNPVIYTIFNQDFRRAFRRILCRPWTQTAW
T19 sequence (P25021 whole entry): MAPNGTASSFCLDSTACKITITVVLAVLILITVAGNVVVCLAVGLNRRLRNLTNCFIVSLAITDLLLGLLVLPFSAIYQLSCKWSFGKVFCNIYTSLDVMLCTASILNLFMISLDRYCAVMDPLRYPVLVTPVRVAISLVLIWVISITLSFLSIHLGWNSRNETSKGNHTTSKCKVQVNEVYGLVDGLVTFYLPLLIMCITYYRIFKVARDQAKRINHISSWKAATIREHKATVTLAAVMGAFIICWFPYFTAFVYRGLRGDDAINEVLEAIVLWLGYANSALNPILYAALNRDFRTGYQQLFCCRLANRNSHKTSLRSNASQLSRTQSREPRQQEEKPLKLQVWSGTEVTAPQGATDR
T8 sequence (P20309 whole entry): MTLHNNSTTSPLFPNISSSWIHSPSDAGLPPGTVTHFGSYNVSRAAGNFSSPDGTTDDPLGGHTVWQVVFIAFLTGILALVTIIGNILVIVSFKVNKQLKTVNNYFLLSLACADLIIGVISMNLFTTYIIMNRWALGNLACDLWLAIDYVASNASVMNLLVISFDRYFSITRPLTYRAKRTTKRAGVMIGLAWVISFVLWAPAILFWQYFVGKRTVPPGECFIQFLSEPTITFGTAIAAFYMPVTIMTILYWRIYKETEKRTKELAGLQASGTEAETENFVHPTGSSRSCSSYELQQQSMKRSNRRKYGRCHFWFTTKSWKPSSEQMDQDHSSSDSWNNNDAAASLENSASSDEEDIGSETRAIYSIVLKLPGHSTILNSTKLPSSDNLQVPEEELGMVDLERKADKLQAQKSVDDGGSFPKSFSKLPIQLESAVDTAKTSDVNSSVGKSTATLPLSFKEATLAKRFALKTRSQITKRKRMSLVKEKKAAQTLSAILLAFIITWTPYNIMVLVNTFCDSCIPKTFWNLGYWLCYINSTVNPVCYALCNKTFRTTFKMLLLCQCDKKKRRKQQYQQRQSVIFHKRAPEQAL
Sequence of ADRB2 (P07550 whole entry): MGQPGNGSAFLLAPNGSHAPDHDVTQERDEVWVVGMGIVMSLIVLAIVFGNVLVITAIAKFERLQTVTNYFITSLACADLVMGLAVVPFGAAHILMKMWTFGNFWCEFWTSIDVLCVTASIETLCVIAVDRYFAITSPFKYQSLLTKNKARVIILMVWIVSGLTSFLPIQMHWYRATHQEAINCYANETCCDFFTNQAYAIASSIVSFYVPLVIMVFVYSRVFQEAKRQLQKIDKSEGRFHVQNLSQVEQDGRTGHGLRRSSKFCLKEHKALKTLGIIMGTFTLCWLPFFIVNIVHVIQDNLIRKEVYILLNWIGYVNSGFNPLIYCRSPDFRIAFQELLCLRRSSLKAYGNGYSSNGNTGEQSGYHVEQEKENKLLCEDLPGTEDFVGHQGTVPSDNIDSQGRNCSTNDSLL
T33 sequence (Q9UBY5 whole entry): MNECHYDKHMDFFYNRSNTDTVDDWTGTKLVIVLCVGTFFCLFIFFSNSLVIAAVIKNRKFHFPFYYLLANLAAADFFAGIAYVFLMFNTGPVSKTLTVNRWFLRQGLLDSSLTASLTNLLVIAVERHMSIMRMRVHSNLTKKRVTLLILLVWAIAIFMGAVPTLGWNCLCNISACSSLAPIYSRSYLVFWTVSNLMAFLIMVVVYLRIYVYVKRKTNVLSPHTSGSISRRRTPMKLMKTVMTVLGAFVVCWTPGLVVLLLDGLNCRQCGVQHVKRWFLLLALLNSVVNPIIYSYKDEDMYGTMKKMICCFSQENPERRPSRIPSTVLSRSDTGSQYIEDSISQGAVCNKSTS
T29 sequence (P32239 whole entry): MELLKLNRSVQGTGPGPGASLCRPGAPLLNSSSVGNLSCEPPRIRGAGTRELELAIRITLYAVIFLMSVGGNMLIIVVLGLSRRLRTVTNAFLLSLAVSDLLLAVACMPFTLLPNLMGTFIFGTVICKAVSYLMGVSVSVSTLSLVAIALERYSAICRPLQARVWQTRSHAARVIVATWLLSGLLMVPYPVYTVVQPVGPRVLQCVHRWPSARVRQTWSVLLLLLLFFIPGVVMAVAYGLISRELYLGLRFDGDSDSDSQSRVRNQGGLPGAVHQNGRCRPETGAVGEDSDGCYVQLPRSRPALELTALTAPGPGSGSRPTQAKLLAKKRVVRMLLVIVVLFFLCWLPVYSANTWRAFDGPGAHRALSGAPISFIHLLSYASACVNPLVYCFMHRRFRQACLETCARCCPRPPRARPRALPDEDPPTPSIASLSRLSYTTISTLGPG
T9 sequence (P25025 whole entry): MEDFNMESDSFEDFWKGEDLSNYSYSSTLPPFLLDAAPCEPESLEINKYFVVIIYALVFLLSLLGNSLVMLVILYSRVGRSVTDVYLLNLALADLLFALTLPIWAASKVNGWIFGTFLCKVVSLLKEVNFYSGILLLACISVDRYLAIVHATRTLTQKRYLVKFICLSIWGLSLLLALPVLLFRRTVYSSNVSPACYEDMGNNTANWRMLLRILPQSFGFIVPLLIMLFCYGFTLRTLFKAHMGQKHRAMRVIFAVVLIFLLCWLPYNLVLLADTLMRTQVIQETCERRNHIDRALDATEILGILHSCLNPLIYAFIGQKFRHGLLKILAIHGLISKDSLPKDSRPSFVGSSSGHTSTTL
T18 sequence (P21452 whole entry): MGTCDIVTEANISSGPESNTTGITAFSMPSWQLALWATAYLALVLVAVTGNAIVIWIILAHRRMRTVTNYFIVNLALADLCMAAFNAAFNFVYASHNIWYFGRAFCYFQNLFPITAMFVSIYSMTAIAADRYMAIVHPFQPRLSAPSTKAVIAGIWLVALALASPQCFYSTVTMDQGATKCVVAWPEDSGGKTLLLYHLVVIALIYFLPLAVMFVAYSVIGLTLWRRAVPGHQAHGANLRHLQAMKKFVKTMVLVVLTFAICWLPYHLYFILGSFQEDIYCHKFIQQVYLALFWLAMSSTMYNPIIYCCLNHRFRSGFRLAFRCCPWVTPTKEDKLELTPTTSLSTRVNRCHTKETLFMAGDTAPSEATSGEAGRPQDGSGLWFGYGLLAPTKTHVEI
T2 sequence (P49019 whole entry): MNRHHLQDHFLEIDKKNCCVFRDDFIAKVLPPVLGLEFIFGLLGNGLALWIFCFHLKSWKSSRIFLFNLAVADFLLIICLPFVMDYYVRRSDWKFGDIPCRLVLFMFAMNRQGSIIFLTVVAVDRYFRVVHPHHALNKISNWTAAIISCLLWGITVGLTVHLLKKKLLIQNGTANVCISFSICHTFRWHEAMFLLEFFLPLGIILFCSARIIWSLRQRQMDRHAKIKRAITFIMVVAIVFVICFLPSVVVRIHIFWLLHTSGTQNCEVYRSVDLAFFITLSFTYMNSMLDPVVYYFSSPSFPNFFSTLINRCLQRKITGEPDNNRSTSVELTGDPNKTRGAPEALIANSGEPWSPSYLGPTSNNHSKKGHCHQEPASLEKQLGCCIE
T5 sequence (Q8TDS4 whole entry): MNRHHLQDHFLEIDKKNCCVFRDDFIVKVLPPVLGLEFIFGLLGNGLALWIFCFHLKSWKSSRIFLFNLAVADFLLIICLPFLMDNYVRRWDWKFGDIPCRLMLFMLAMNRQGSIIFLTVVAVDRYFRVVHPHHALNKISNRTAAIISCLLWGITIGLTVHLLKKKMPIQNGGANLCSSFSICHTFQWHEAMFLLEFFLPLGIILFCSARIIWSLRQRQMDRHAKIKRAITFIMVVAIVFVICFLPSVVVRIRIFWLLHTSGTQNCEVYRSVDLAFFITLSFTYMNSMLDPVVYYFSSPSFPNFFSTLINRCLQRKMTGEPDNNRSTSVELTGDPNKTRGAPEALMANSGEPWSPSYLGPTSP
T4 sequence (Q13324 whole entry): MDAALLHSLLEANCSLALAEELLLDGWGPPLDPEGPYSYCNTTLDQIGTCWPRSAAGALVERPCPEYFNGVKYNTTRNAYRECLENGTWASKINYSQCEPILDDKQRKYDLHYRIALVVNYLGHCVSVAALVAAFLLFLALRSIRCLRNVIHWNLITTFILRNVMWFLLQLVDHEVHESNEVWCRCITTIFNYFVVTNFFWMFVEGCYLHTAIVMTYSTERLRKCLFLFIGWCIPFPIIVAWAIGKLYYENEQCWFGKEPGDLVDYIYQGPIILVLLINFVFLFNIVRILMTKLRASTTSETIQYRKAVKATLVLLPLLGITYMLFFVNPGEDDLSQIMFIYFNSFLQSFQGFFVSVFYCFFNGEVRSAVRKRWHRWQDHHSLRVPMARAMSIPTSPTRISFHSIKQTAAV
T11 sequence (Q8TCW9 whole entry): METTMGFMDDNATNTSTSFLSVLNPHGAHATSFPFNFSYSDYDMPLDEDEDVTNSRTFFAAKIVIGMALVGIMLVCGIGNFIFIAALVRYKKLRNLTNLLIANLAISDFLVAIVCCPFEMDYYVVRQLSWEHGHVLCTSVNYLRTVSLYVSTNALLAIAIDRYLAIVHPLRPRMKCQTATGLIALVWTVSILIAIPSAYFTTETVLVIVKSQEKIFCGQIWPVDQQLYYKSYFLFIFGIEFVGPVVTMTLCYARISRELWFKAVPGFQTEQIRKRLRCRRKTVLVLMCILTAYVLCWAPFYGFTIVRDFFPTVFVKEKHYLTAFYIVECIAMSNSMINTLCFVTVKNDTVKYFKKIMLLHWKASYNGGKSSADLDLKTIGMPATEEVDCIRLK

## CC(=O)N[C@@H](CCCC#C/C=C/Cl)CCCCCCC(Cl)Cl [Compound 4, taveuniamide F]
[1]
  inhibition at 20 µM: -0.1%
[2]
  inhibition at 20 µM: 36.1%
[3]
  inhibition at 20 µM: 48.5%
[4]
  inhibition at 20 µM: 30.5%
[5]
  inhibition at 20 µM: 12%
[6]
  inhibition at 20 µM: 5.5%
[7]
  inhibition at 20 µM: 56.5%
[8]
  inhibition at 20 µM: 25.3%
[9]
  inhibition at 20 µM: 14.7%
[10]
  inhibition at 20 µM: 59.9%
[11]
  inhibition at 20 µM: 20.5%
[12]
  inhibition at 20 µM: 22.9%
[13]
  inhibition at 20 µM: 37.6%
[14]
  inhibition at 20 µM: -1.1%
[15]
  inhibition at 20 µM: 3%
[16]
  inhibition at 20 µM: 16.5%
[17]
  inhibition at 20 µM: 4.6%
[18]
  inhibition at 20 µM: 5.7%
[19]
  inhibition at 20 µM: 31.5%
[20]
  inhibition at 20 µM: 59.3%
[21]
  inhibition at 20 µM: 58.6%
[22]
  inhibition at 20 µM: 24.1%
[23]
  inhibition at 20 µM: 14.4%
[24]
  inhibition at 20 µM: 20.2%
[25]
  inhibition at 20 µM: 30.4%
[26]
  inhibition at 20 µM: -8.1%
[27]
  inhibition at 20 µM: 15.9%
[28]
  inhibition at 20 µM: 11.7%
[29]
  inhibition at 20 µM: -1%
[30]
  inhibition at 20 µM: 59.9%
[31]
  inhibition at 20 µM: 8.4%
[32]
  inhibition at 20 µM: 18.7%
[33]
  inhibition at 20 µM: 10.7%
[34]
  inhibition at 20 µM: 19.7%
[35]
  inhibition at 20 µM: 10.2%
[36]
  inhibition at 20 µM: 30.7%
[37]
  inhibition at 20 µM: 2.7%
[38]
  inhibition at 20 µM: 7.2%
[39]
  inhibition at 20 µM: 14.1%
[40]
  inhibition at 20 µM: 3.1%
[41]
  inhibition at 20 µM: 38.6%
[42]
  inhibition at 20 µM: 41.3%
